In patent publication US20230126447A1, “OCULAR DRUG DEPOT FOR COMPLEMENT-MEDIATED DISORDERS” (priority 2020, published 2023):
Where two headings read alike, the source gives them in different places.

What was measured:
[1] = Ocular tissue and plasma pharmacokinetics, 15 mg/kg oral, New Zealand White rabbits (Example 3/5); format: in vivo
AP activity = test: cells; settings: Erythrocyte, read-out: IC50 for PNH erythrocyte hemolysis
[2] = Ocular tissue and plasma pharmacokinetics, 15 mg/kg oral, New Zealand White rabbits (Example 3/5); format: in vivo; remark: listed apart in the source
Procedure: Study design including group designation and dose levels are outlined in Table 4. […] Fifteen Dutch Belted and 5 New Zealand White rabbits were used as un-dosed controls. […] The dose volume was 5 mL/kg/dose for all groups. Safety was assessed with toxicological and ophthalmic examinations including slit lamp biomicroscopy, indirect ophthalmoscopy, rebound tonometry, and ultrasonic corneal pachymetry.
Analyst® software (Version 1.6.2) was used to capture the LC-MS/MS data and integrate the peak areas. Calibration standards and QCs were prepared in a blank solution of 75%:25% acetonitrile:water (v:v), ranging from 10 ng/mL to 10,000 ng/mL. Matrix matched standard and QC samples were prepared by mixing 2 μL of standard or QC sample above with 18 μL of appropriate ocular tissue or plasma. The final calibration standards ranged from 1 ng/mL to 1000 ng/mL. All plasma, retina, choroid-RPE, optic nerve, and vitreous humor samples were analyzed in a single run. Iris-ciliary body samples were analyzed in two runs due to a need for sample dilution. […] Dilution QCs were prepared at 5000 ng/mL where appropriate. Two sets of standards were used to bracket the analytical run at the beginning and end of the run. Three sets of QCs were included the analytical runs. All concentrations in ocular matrices are reported as ng/g based on the assumed density of 1 g/mL.
1, 6, 24, 96, 168, and 240 hours post-dose on Day 15, with the eyes collected at the same time as blood sampling. A single blood sample was taken from Groups 4 and 5 at sacrifice. Plasma, vitreous humor (VH), retina, choroid-retina pigmented epithelium (Choroid-RPE), optic nerve (ON), and iris-ciliary body (I-CB) were analyzed by LC-MS/MS to quantify test article concentrations. The lower limit of quantitation (LLOQ) in plasma and vitreous humor was 1.0 ng/mL. The LLOQ was 6.0 ng/g in retina, Choroid-RPE, and I-CB and the optic nerve LLOQ was 15 ng/g, assuming tissue density of 1 g/mL where relevant.
Study design including group designation and dose levels are outlined in Table 18.

[3] = Multiple ascending dose (MAD) pharmacokinetics in humans; format: in vivo
[4] = Choroid-RPE, NZW rabbit, 15 mg/kg single dose, Day 1
[5] = NZW rabbit, 15 mg/kg single oral dose, Day 1, 0 h, 15 mg/kg
[6] = NZW rabbit, 15 mg/kg single oral dose, Day 1, 6 h, 15 mg/kg
[7] = NZW rabbit, 15 mg/kg single oral dose, Day 1, 24 h
[8] = NZW rabbit, 15 mg/kg single oral dose, Day 1, 24 h, 15 mg/kg
[9] = NZW rabbit, 15 mg/kg single oral dose, Day 1, 96 h
[10] = NZW rabbit, 15 mg/kg single oral dose, Day 1, 96 h, 15 mg/kg
[11] = NZW rabbit, 15 mg/kg single oral dose, Day 1, 168 h
[12] = NZW rabbit, 15 mg/kg single oral dose, Day 1, 168 h, 15 mg/kg
[13] = NZW rabbit, 15 mg/kg single oral dose, Day 1, 240 h
[14] = NZW rabbit, 15 mg/kg single oral dose, Day 1, 240 h, 15 mg/kg
[15] = NZW rabbits, Day 1, 15 mg/kg single dose, 0 hr
[16] = NZW rabbits, Day 1, 15 mg/kg single dose, 96 hr
[17] = NZW rabbits, Day 1, 15 mg/kg single dose, 168 hr
[18] = NZW rabbits, Day 1, 15 mg/kg single dose, 240 hr
[19] = New Zealand White, po, Iris-Ciliary Body, NZW rabbit, 15 mg/kg single dose, Day 1
[20] = New Zealand White, po, Vitreous Humor, NZW rabbit, 15 mg/kg single dose, Day 1
[21] = plasma, NZW rabbit, 15 mg/kg single dose, Day 1
[22] = retina, NZW rabbit, 15 mg/kg single dose, Day 1

## CC(=O)c1nn(CC(=O)N2C[C@H](F)C[C@H]2C(=O)Nc2cccc(Br)n2)c2ccc(-c3cnc(C)nc3)cc12 [Compound 1, (2S,4R)-1-(2-(3-Acetyl-5-(2-methylpyrimidin-5-yl)-1H-indazol-1-yl)acetyl)-N-(6-bromopyridin-2-yl)-4-fluoropyrrolidine-2-carboxamide]
[1]; [4]
  MRTlast: 5.87 h
  Tlast: 24 h
[1]; Iris-Ciliary Body, NZW rabbit, 15 mg/kg single dose, Day 1
  Tlast: 1 h
[1]; NZW rabbit, 15 mg/kg single oral dose, Day 1, 0 h
  Mean Vitreous Humor concentration: BLQ^a
[1]; [5]
  Mean Choroid-RPE concentration: BLQ^a and BLQ
  Mean Iris-Ciliary Body concentration: BLQ^a and BLQ
  Mean plasma concentration: BLQ^a and BLQ
  Mean retina concentration: BLQ^a and BLQ
[1]; NZW rabbit, 15 mg/kg single oral dose, Day 1, 6 h
  Mean Aqueous Humor concentration: BLQ^a
[1]; [6]
  Mean Iris-Ciliary Body concentration: BLQ^a and BLQ
  Mean retina concentration: 26 ng/g
[1]; [7]
  Mean Aqueous Humor concentration: BLQ^a
  Mean Vitreous Humor concentration: BLQ^a
[1]; [8]
  Mean Iris-Ciliary Body concentration: BLQ^a and BLQ
  Mean retina concentration: BLQ^a and BLQ
[1]; [9]
  Mean Aqueous Humor concentration: BLQ^a
  Mean Vitreous Humor concentration: BLQ^a
[1]; [10]
  Mean Choroid-RPE concentration: BLQ^a and BLQ
  Mean Iris-Ciliary Body concentration: BLQ^a and BLQ
  Mean plasma concentration: BLQ^a and BLQ
  Mean retina concentration: BLQ^a and BLQ
[1]; [11]
  Mean Aqueous Humor concentration: BLQ^a
  Mean Vitreous Humor concentration: BLQ^a
[1]; [12]
  Mean Choroid-RPE concentration: BLQ^a and BLQ
  Mean Iris-Ciliary Body concentration: BLQ^a and BLQ
  Mean retina concentration: BLQ^a and BLQ
[1]; [13]
  Mean Aqueous Humor concentration: BLQ^a
[1]; [14]
  Mean Choroid-RPE concentration: BLQ^a and BLQ
  Mean Iris-Ciliary Body concentration: BLQ^a and BLQ
  Mean plasma concentration: BLQ^a and BLQ
  Mean retina concentration: BLQ^a and BLQ
[1]; [15]
  Mean Choroid-RPE concentration: BLQ
  Mean retina concentration: BLQ
[1]; NZW rabbits, Day 1, 15 mg/kg single dose, 24 hr
  Mean retina concentration: BLQ
[1]; [16]
  Mean Choroid-RPE concentration: BLQ
[1]; [17]
  Mean Choroid-RPE concentration: BLQ
  Mean retina concentration: BLQ
[1]; [18]
  Mean Choroid-RPE concentration: BLQ
  Mean retina concentration: BLQ
[1]; New Zealand White, aqueous humor, NZW rabbit, 15 mg/kg single oral dose, Day 1, 1 h, read-out: Mean Aqueous Humor concentration
  concentration at 1 h: 4 ng/mL
[1]; New Zealand White, choroid-RPE, NZW rabbit, 15 mg/kg single oral dose, Day 1, 1 h, read-out: Mean Choroid-RPE concentration
  concentration at 1 h: 172 ng/g
[1]; New Zealand White, choroid-RPE, NZW rabbit, 15 mg/kg single oral dose, Day 1, 6 h, read-out: Mean Choroid-RPE concentration
  concentration at 6 h: 31.5 ng/g
[1]; New Zealand White, choroid-RPE, NZW rabbit, 15 mg/kg single oral dose, Day 1, 24 h, read-out: Mean Choroid-RPE concentration
  concentration at 24 h: 15.1 ng/g
[1]; New Zealand White, plasma, NZW rabbit, 15 mg/kg single oral dose, Day 1, 1 h, read-out: Mean plasma concentration
  concentration at 1 h: 310 ng/mL
[1]; New Zealand White, plasma, NZW rabbit, 15 mg/kg single oral dose, Day 1, 6 h, read-out: Mean plasma concentration
  concentration at 6 h: 35.1 ng/mL
[1]; New Zealand White, plasma, NZW rabbit, 15 mg/kg single oral dose, Day 1, 24 h, read-out: Mean plasma concentration
  concentration at 24 h: 11.1 ng/mL
[1]; [19]
  Cmax: 117 ng/g
  MRT last: 1 h
[1]; [20]
  AUC(0-t): 30.3 ng·h/mL
  Cmax: 7.61 ng/mL
[1]; New Zealand White, po, plasma, NZW rabbit, 15 mg/kg single dose, Day 1
  Cmax: 310 ng/mL
[1]; New Zealand White, rabbit, choroid-RPE, oral, NZW rabbits, Day 1, 15 mg/kg single dose, 1 hr, read-out: Mean Choroid-RPE Concentration
  concentration at 1 h: 172 ng/g
[1]; New Zealand White, rabbit, choroid-RPE, oral, NZW rabbits, Day 1, 15 mg/kg single dose, 6 hr, read-out: Mean Choroid-RPE Concentration
  concentration at 6 h: 31.5 ng/g
[1]; New Zealand White, rabbit, choroid-RPE, oral, NZW rabbits, Day 1, 15 mg/kg single dose, 24 hr, read-out: Mean Choroid-RPE Concentration
  concentration at 24 h: 15.1 ng/g
[1]; New Zealand White, rabbit, retina, oral, NZW rabbits, Day 1, 15 mg/kg single dose, 1 hr, read-out: Mean Retina Concentration
  concentration at 1 h: 200 ng/g
[1]; New Zealand White, rabbit, retina, oral, NZW rabbits, Day 1, 15 mg/kg single dose, 6 hr, read-out: Mean Retina Concentration
  concentration at 6 h: 26 ng/g
[1]; New Zealand White, retina, NZW rabbit, 15 mg/kg single oral dose, Day 1, 1 h, read-out: Mean retina concentration
  concentration at 1 h: 200 ng/g
[1]; New Zealand White, retina, NZW rabbit, 15 mg/kg single oral dose, Day 1, 6 h, read-out: Mean retina concentration
  concentration at 6 h: 26 ng/g
[1]; New Zealand White, vitreous humor, NZW rabbit, 15 mg/kg single oral dose, Day 1, 1 h, read-out: Mean Vitreous Humor concentration
  concentration at 1 h: 7.61 ng/mL
[1]; New Zealand White, vitreous humor, NZW rabbit, 15 mg/kg single oral dose, Day 1, 6 h, read-out: Mean Vitreous Humor concentration
  concentration at 6 h: 3 ng/mL
[1]; [21]
  MRTlast: 4.01 h
  Tlast: 24 h
[1]; [22]
  MRTlast: 1.49 h
  Tlast: 6 h
AP activity
  IC50: 14 nM
[2]; [13]
  Mean Vitreous Humor concentration: BLQ^a
[2]; [16]
  Mean retina concentration: BLQ
[2]; New Zealand White, aqueous humor, NZW rabbit, 15 mg/kg single oral dose, Day 1, 0 h
  concentration at 0 h: 6.14 ng/mL
[2]; New Zealand White, iris-ciliary body, NZW rabbit, 15 mg/kg single oral dose, Day 1, 1 h
  concentration at 1 h: 117 ng/g
[2]; [20]
  MRT last: 2.24 h
[2]; New Zealand White, po, retina, NZW rabbit, 15 mg/kg single dose, Day 1
  Cmax: 200 ng/g
[2]; Vitreous Humor, NZW rabbit, 15 mg/kg single dose, Day 1
  Tlast: 6 h
[2]; [21]
  AUClast: 1430 ng·h/mL
[3]; MAD study
  Steady state conditions reached: Day 2
[3]; human, in vivo, 200 to 800 mg BID and 75 mg TID, read-out: Median time to maximum concentration (Tmax)
  Tmax: 1 to 2.3 h
